Source: patent US20260028365A1 (BIOGEN MA INC., priority 2022, published 2026)
Read-outs that look alike come from different tables or passages of the source.

Columns and labels:
Tyk2 = Tyk2 (Homo sapiens (Human), UniProt P29597); test: pSTAT4 Cell Assay (MSD, NK92 cells); type: cell-based
JAK1 = JAK1 (Homo sapiens (Human), UniProt P23458); test: pSTAT3 Cell Assay (MSD, TF1 cells); type: cell-based
Outline: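 Serum-starved TF1 cells were pretreated with compound for 1 hour (10-point, four-fold dilutions from 10 μM), then stimulated with IL-6 for 15 minutes. Lysates were assayed for pSTAT3 by MSD with anti-STAT3 antibodies; IC50 came from a 4-parameter logistic fit of normalized percent activity.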

JH2 domain of human Tyk2 = JH2 domain of human Tyk2 (Homo sapiens (Human), UniProt P29597); test: JH2 Biochemical Assay (TR-FRET probe displacement); type: binding
JAK2 = JAK2 (Homo sapiens (Human), UniProt O60674); test: pSTAT5 Cell Assay (MSD, TF1 cells); type: cell-based
Outline: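 Serum-starved TF1 cells were pretreated with compound for 1 h (10-point four-fold series from 10 μM), then stimulated with 30 ng/mL IL-3 for 15 min. pSTAT5 in lysates was measured by MSD immunoassay. IC50 came from a 4-parameter logistic fit.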

[1] = JH2 domain of human Tyk2, TR-FRET probe displacement
[2] = TR-FRET probe displacement, JH2 domain of human Tyk2
[3] = TR-FRET probe displacement, JH2 domain

Chain of JH2 domain of human Tyk2 (P29597 575-876): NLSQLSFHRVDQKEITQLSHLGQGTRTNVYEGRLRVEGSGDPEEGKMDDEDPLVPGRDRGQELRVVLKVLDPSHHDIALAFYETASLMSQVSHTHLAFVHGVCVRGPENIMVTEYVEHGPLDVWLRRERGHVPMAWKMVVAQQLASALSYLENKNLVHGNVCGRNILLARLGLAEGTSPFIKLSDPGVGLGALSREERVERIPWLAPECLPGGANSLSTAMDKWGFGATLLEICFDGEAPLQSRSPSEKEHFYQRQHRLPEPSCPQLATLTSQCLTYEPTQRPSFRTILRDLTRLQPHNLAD
Chain of JAK1 (P23458 whole entry): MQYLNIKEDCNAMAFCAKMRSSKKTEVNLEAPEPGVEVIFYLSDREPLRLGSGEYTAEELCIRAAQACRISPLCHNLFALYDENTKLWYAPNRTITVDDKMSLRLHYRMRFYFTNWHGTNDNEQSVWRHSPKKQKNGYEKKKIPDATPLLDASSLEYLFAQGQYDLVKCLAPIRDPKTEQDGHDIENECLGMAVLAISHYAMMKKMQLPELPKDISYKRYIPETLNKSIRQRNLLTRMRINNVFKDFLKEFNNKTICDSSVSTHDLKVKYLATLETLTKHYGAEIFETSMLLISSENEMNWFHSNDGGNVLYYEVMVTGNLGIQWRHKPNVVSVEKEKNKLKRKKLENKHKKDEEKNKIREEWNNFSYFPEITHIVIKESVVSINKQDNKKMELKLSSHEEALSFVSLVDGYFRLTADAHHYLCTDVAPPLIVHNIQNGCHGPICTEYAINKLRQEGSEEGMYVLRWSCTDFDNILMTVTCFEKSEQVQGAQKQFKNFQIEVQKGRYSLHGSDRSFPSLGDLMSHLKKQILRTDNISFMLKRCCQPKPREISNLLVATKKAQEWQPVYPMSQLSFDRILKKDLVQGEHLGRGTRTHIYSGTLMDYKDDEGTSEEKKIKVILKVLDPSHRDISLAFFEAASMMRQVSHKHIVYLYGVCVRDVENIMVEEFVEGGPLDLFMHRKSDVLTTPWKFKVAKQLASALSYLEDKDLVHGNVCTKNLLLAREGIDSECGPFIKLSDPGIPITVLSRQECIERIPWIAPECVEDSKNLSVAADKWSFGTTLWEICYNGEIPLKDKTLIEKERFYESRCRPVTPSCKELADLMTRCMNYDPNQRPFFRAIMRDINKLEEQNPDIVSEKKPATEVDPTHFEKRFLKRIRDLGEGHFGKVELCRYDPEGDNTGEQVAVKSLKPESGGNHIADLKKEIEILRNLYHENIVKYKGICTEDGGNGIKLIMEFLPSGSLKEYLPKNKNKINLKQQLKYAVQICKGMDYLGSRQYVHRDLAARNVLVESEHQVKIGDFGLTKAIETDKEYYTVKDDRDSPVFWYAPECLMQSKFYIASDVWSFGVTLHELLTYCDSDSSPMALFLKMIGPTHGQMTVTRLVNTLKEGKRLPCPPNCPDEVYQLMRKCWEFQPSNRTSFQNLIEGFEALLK
Chain of Tyk2 (P29597 whole entry): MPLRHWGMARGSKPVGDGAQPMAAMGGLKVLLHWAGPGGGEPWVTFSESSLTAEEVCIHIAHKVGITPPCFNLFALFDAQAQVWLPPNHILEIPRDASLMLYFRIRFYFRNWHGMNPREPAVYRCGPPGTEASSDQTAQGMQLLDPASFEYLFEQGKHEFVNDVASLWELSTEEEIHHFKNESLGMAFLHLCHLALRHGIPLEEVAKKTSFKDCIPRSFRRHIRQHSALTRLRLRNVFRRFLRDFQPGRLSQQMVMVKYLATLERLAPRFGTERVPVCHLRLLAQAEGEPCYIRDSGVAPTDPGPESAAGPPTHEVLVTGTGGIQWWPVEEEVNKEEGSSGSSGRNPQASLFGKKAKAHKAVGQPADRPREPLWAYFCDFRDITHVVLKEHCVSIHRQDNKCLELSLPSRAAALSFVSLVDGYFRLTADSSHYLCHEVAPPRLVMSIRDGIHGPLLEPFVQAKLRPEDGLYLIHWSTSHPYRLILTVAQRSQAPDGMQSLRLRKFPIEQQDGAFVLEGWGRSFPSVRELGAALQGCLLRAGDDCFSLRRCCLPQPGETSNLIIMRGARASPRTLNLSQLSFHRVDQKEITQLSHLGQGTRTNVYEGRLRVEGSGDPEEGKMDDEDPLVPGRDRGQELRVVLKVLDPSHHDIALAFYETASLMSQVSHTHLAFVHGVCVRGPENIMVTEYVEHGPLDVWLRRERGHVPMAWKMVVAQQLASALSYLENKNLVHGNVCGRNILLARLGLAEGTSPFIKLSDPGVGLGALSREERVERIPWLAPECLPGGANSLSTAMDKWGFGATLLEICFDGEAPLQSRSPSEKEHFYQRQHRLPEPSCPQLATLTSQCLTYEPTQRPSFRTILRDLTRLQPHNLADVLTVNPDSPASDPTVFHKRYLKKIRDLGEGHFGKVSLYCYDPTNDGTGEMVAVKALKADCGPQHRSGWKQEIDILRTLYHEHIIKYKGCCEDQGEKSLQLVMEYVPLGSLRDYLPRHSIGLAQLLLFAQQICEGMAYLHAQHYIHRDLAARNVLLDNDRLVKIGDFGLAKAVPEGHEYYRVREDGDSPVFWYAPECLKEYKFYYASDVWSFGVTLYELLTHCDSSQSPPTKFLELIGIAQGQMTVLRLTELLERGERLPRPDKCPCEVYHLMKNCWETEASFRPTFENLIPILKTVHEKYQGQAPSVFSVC
Chain of JAK2 (O60674 whole entry): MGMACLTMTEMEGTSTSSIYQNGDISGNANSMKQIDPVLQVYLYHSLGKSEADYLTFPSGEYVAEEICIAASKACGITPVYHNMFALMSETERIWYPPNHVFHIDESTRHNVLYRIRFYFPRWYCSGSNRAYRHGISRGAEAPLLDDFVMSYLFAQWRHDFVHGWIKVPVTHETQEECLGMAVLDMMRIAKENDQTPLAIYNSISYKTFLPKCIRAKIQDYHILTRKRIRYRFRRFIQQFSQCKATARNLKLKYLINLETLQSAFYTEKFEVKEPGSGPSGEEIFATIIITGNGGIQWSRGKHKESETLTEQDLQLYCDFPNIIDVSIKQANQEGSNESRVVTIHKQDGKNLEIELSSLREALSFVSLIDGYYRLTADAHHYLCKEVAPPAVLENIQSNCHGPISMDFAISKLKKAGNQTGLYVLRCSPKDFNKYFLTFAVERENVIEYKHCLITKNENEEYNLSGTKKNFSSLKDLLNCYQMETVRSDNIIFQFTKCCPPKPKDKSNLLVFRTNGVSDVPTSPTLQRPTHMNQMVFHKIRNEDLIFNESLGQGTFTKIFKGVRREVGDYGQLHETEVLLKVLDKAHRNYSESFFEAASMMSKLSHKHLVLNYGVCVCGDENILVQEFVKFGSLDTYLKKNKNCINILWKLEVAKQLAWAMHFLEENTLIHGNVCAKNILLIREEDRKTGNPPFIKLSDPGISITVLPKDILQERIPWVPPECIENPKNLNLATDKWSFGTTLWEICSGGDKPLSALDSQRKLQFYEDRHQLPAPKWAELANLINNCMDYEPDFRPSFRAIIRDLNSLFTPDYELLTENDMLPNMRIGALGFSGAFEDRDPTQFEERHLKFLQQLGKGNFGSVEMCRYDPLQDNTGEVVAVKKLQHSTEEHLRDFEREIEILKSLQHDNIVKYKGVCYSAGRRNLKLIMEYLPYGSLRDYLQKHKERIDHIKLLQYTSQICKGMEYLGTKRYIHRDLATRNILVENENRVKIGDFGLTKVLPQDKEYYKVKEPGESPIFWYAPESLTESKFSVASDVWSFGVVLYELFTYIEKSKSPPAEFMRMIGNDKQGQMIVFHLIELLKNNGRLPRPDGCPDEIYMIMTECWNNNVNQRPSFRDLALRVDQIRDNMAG

SMILES | IC50 (Tyk2; MSD) | IC50 (JAK1; IL-6 stimulated, MSD) | IC50 (JH2 domain of human Tyk2; [1]) | IC50 (JAK2; IL-3 stimulated, MSD) | IC50 (JAK1; IL-6 stimulation, MSD) | IC50 (JH2 domain of human Tyk2; [2]) | IC50 (JAK2; IL-3 stimulation, MSD) | IC50 (Tyk2) | IC50 (JAK1; IL-6 stimulated) | IC50 (JH2 domain of human Tyk2; [3]) | IC50 (JAK2; IL-3 stimulated)
CC(=O)Nc1cc(Nc2cc(C)nc(C(C)(F)F)n2)c(-c2cc3n(n2)CCOC3)cn1 [Example 528, N-(4-((2-(1,1-difluoroethyl)-6-methylpyrimidin-4-yl)amino)-5-(6,7-dihydrO4H-pyrazolo[5,1-c][1,4]oxazin-2-yl)pyridin-2-yl)acetamide] | ≤ 10 nM | ≥ 1000 nM | ≤ 10 nM | ≥ 1000 nM |  |  |  |  |  |  | 
CC(=O)Nc1cc(Nc2ccnc(C(C)(F)F)n2)c(-c2ncc(F)cn2)cn1 [Example 185, N-(4-((2-(1,1-difluoroethyl)pyrimidin-4-yl)amino)-5-(5-fluoropyrimidin-2-yl)pyridin-2-yl)acetamide] | 10 to 100 nM |  |  |  | ≥ 1000 nM | ≤ 10 nM | ≥ 1000 nM |  |  |  | 
CC(=O)Nc1cc(Nc2cc(OC3CC3)nc(C(C)(F)F)n2)c(OCC2CCCO2)cn1 (stereo not drawn) [Example 139, N-(4-((6-cyclopropoxy-2-(1,1-difluoroethyl)pyrimidin-4-yl)amino)-5-((tetrahydrofuran-2-yl)methoxy)pyridin-2-yl)acetamide] | ≤ 10 nM |  |  |  | ≥ 1000 nM | ≤ 10 nM | ≥ 1000 nM |  |  |  | 
CC(=O)Nc1cc(Nc2cncc(C(C)(F)F)n2)c(-c2ccn(C)n2)cn1 [Example 212, N-(4-((6-(1,1-difluoroethyl)pyrazin-2-yl)amino)-5-(1-methyl-1H-pyrazol-3-yl)pyridin-2-yl)acetamide] | ≤ 10 nM |  |  |  | ≥ 1000 nM | ≤ 10 nM | 100 to 1000 nM |  |  |  | 
CCc1cc(Nc2cc(NC(C)=O)ncc2-c2ccncn2)nc(C(C)(F)F)n1 [Example 799, N-(4-((2-(1,1-difluoroethyl)-6-ethylpyrimidin-4-yl)amino)-5-(pyrimidin-4-yl)pyridin-2-yl)acetamide] |  |  |  |  |  |  |  | ≤ 10 nM | ≥ 1000 nM | ≤ 10 nM | ≥ 1000 nM
CO[C@H]1C[C@@H](Oc2cnc(NC(C)=O)cc2Nc2cc(OC3CC3)nc(C(C)(F)F)n2)C1 [Example 351, N-(4-((6-cyclopropoxy-2-(1,1-difluoroethyl)pyrimidin-4-yl)amino)-5-((1s,3s)-3-methoxycyclobutoxy)pyridin-2-yl)acetamide] | ≤ 10 nM |  |  |  | ≥ 1000 nM | ≤ 10 nM | ≥ 1000 nM |  |  |  | 
CCc1cc(Nc2cc(NC(C)=O)ncc2-c2ncc(C3COCCO3)cn2)nc(C(C)(F)F)n1 (stereo not drawn) [Example 840, N-(5-(5-(1,4-dioxan-2-yl)pyrimidin-2-yl)-4-((2-(1,1-difluoroethyl)-6-ethylpyrimidin-4-yl)amino)pyridin-2-yl)acetamide] |  |  |  |  |  |  |  | ≤ 10 nM | ≥ 1000 nM | ≤ 10 nM | ≥ 1000 nM
CC(=O)Nc1cc(Nc2ccnc(C(C)(F)F)n2)c(-c2cnn(C(C)C)n2)cn1 [Example 708, N-(4-((2-(1,1-difluoroethyl)pyrimidin-4-yl)amino)-5-(2-isopropyl-2H-1,2,3-triazol-4-yl)pyridin-2-yl)acetamide] | ≤ 10 nM | ≥ 1000 nM | ≤ 10 nM | ≥ 1000 nM |  |  |  |  |  |  | 
CCOc1cnc(NC(C)=O)cc1Nc1cc(OC2CC2)nc(C(C)(F)F)n1 [Example 490, N-(4-((6-cyclopropoxy-2-(1,1-difluoroethyl)pyrimidin-4-yl)amino)-5-ethoxypyridin-2-yl)acetamide] | ≤ 10 nM | ≥ 1000 nM | ≤ 10 nM | ≥ 1000 nM |  |  |  |  |  |  | 
[2H]C([2H])([2H])C([2H])([2H])Oc1cnc(NC(C)=O)cc1Nc1cc(NC2CCC2)nc(C(C)(F)F)n1 [Example 488, N-(4-((6-(cyclobutylamino)-2-(1,1-difluoroethyl)pyrimidin-4-yl)amino)-5-(ethoxy-d5)pyridin-2-yl)acetamide] | ≤ 10 nM | ≥ 1000 nM | ≤ 10 nM | ≥ 1000 nM |  |  |  |  |  |  | 
CC(=O)Nc1cc(Nc2cc(C)nc(C(C)(F)F)n2)c(OC[C@H]2C[C@H]2F)cn1 (racemic) [Example 425, Cis-rac-N-(4-((2-(1,1-difluoroethyl)-6-methylpyrimidin-4-yl)amino)-5-((2-fluorocyclopropyl)methoxy)pyridin-2-yl)acetamide] | ≤ 10 nM | ≥ 1000 nM | ≤ 10 nM | ≥ 1000 nM |  |  |  |  |  |  | 
COCc1ccc(-c2cnc(NC(C)=O)cc2Nc2ccnc(C(C)(F)F)n2)nc1 [Example 851, N-(4′-((2-(1,1-difluoroethyl)pyrimidin-4-yl)amino)-5-(methoxymethyl)-[2,3′-bipyridin]-6′-yl)acetamide] |  |  |  |  |  |  |  | ≤ 10 nM | ≥ 1000 nM | ≤ 10 nM | ≥ 1000 nM
CC(=O)Nc1cc(Nc2cc(C)nc(C(C)(F)F)n2)c(-c2ccc(F)cn2)cn1 [Example 594, N-(4′-((2-(1,1-difluoroethyl)-6-methylpyrimidin-4-yl)amino)-5-fluorO[2,3′-bipyridin]-6′-yl)acetamide] | ≤ 10 nM | ≥ 1000 nM | ≤ 10 nM | ≥ 1000 nM |  |  |  |  |  |  | 
CCOc1cnc(NC(C)=O)cc1Nc1cc(-c2cnn(CC)c2)nc(C(C)(F)F)n1 [Example 311, N-(4-((2-(1,1-difluoroethyl)-6-(1-ethyl-1H-pyrazol-4-yl)pyrimidin-4-yl)amino)-5-ethoxypyridin-2-yl)acetamide] | 10 to 100 nM |  |  |  | ≥ 1000 nM | ≤ 10 nM | ≥ 1000 nM |  |  |  | 
COCCOc1cnc(NC(C)=O)cc1Nc1cc(C2CC2)nc(C(C)(F)F)n1 [Example 66, N-(4-((6-cyclopropyl-2-(1,1-difluoroethyl)pyrimidin-4-yl)amino)-5-(2-methoxyethoxy)pyridin-2-yl)acetamide] | ≤ 10 nM |  |  |  | ≥ 1000 nM | ≤ 10 nM | ≥ 1000 nM |  |  |  | 
CC(=O)Nc1cc(Nc2ccnc(C(C)(F)F)n2)c(-c2nnc(C(C)(C)C)s2)cn1 [Example 715, N-(5-(5-(tert-butyl)-1,3,4-thiadiazol-2-yl)-4-((2-(1,1-difluoroethyl)pyrimidin-4-yl)amino)pyridin-2-yl)acetamide] | ≤ 10 nM | ≥ 1000 nM | ≤ 10 nM | ≥ 1000 nM |  |  |  |  |  |  | 
CC(=O)Nc1cc(Nc2cc(C)nc(C(C)(F)F)n2)c(-c2nc3c(s2)CN(C)CC3)cn1 [Example 238, N-(4-((2-(1,1-difluoroethyl)-6-methylpyrimidin-4-yl)amino)-5-(5-methyl-4,5,6,7-tetrahydrothiazolo[5,4-c]pyridin-2-yl)pyridin-2-yl)acetamide] | ≤ 10 nM |  |  |  | ≥ 1000 nM | ≤ 10 nM | ≥ 1000 nM |  |  |  | 
CCc1cc(Nc2cc(NC(=O)OC)ncc2OCCOC)nc(C(C)(F)F)n1 [Example 87, methyl (4-((2-(1,1-difluoroethyl)-6-ethylpyrimidin-4-yl)amino)-5-(2-methoxyethoxy)pyridin-2-yl)carbamate] | ≤ 10 nM |  |  |  | ≥ 1000 nM | ≤ 10 nM | ≥ 1000 nM |  |  |  | 
CC(=O)Nc1cc(Nc2cc(OC3CC3)nc(C(C)(F)F)n2)c(OC[C@@H]2COCCO2)cn1 (single isomer, unassigned) [Example 453, (S)-N-(5-((1,4-dioxan-2-yl)methoxy)-4-((6-cyclopropoxy-2-(1,1-difluoroethyl)pyrimidin-4-yl)amino)pyridin-2-yl)acetamide or (R)-N-(5-((1,4-dioxan-2-yl)methoxy)-4-((6-cyclopropoxy-2-(1,1-difluoroethyl)pyrimidin-4-yl)amino)pyridin-2-yl)acetamide] | ≤ 10 nM | ≥ 1000 nM | ≤ 10 nM | ≥ 1000 nM |  |  |  |  |  |  | 
COCCOc1cc(Nc2cc(NC(C)=O)ncc2OC)nc(C(C)(F)F)n1 [Example 37, N-(4-((2-(1,1-difluoroethyl)-6-(2-methoxyethoxy)pyrimidin-4-yl)amino)-5-methoxypyridin-2-yl)acetamide] | 100 to 1000 nM |  |  |  | ≥ 1000 nM | ≤ 10 nM | ≥ 1000 nM |  |  |  | 
CC(=O)Nc1cc(Nc2cc(C)nc(C(C)(F)F)n2)c(O)cn1 [Example 486, N-(4-((2-(1,1-difluoroethyl)-6-methylpyrimidin-4-yl)amino)-5-hydroxypyridin-2-yl)acetamide] | ≥ 1000 nM | ≥ 1000 nM | 10 to 100 nM | ≥ 1000 nM |  |  |  |  |  |  | 
COCCOc1ccc(-c2cnc(NC(C)=O)cc2Nc2cc(C)nc(C(C)(F)F)n2)nc1 [Example 522, N-(4′-((2-(1,1-difluoroethyl)-6-methylpyrimidin-4-yl)amino)-5-(2-methoxyethoxy)-[2,3′-bipyridin]-6′-yl)acetamide] | ≤ 10 nM | ≥ 1000 nM | ≤ 10 nM | ≥ 1000 nM |  |  |  |  |  |  | 
CC(=O)Nc1cc(Nc2cc(C)nc(C(C)(F)F)n2)c(-c2ccn(C)n2)cn1 [Example 218, N-(4-((2-(1,1-difluoroethyl)-6-methylpyrimidin-4-yl)amino)-5-(1-methyl-1H-pyrazol-3-yl)pyridin-2-yl)acetamide] | ≤ 10 nM |  |  |  | ≥ 1000 nM | ≤ 10 nM | ≥ 1000 nM |  |  |  | 
CC(=O)Nc1cc(Nc2cc(OC3CC3)nc(C(C)(F)F)n2)c(O[C@H]2C[C@@H](F)C2)cn1 [Example 353, N-(4-((6-cyclopropoxy-2-(1,1-difluoroethyl)pyrimidin-4-yl)amino)-5-((1s,3s)-3-fluorocyclobutoxy)pyridin-2-yl)acetamide] | ≤ 10 nM |  |  |  | ≥ 1000 nM | ≤ 10 nM | ≥ 1000 nM |  |  |  | 
